ChEMBL document CHEMBL3885881, “DrugMatrix”

Species on record: Rattus norvegicus
Experiment: DrugMatrix - Regimen: Daily Repeat
Type: toxicity, organism-based, Sprague-Dawley
Design: regimen Daily Repeat, gender Male, age 6-8 weeks
Settings: in vivo, po, route oral GAVAGE, vehicle 100 % WATER; for ABSOLUTE BASOPHIL / ABSOLUTE EOSINOPHIL / ABSOLUTE LYMPHOCYTE / ABSOLUTE MONOCYTE / ABSOLUTE SEGMENTED NEUTROPHIL / BASOPHIL / EOSINOPHIL / ERYTHROCYTE COUNT / HEMATOCRIT / HEMOGLOBIN / LEUKOCYTE COUNT / LYMPHOCYTE / MEAN CORPUSCULAR HEMOGLOBIN / MEAN CORPUSCULAR HEMOGLOBIN CONCENTRATION / MEAN CORPUSCULAR VOLUME / MONOCYTE / NEUTROPHIL / NUCLEATED RED BLOOD CELLS / PLATELET COUNT: tissue Blood; for ALANINE AMINOTRANSFERASE / ALBUMIN / ALKALINE PHOSPHATASE / ASPARTATE AMINOTRANSFERASE / BLOOD UREA NITROGEN / CARBON DIOXIDE / CHLORIDE / CHOLESTEROL / CREATINE PHOSPHOKINASE / CREATININE / GLUCOSE / LACTATE DEHYDROGENASE / LIPASE / PHOSPHORUS / POTASSIUM / SODIUM / TOTAL BILIRUBIN / TOTAL PROTEIN / URIC ACID: tissue Plasma
[1] = 300 mg/kg, 120 h, dose level Low, time 5 day
[2] = 3000 mg/kg, 72 h, dose level High, time 3 day
[3] = 3000 mg/kg, 120 h, dose level High, time 5 day

CC(Cl)(Cl)Cl [TRICHLOROETHANE]
ABSOLUTE BASOPHIL [1]: 0 CELLS/uL
ABSOLUTE EOSINOPHIL [1]: 0 CELLS/uL
ABSOLUTE LYMPHOCYTE [1]: 11569 CELLS/uL
ABSOLUTE MONOCYTE [1]: 149.67 CELLS/uL
ABSOLUTE SEGMENTED NEUTROPHIL [1]: 1081.33 CELLS/uL
BASOPHIL [1]: 0%
EOSINOPHIL [1]: 0%
ERYTHROCYTE COUNT [1]: 5.76 x10E6/uL
HEMATOCRIT [1]: 36.17%
HEMOGLOBIN [1]: 14.07 G/DL
LEUKOCYTE COUNT [1]: 12.8 x10E3/uL
LYMPHOCYTE [1]: 90%
MEAN CORPUSCULAR HEMOGLOBIN [1]: 24.43 pg
MEAN CORPUSCULAR HEMOGLOBIN CONCENTRATION [1]: 38.9 G/DL
MEAN CORPUSCULAR VOLUME [1]: 62.7 fL
MONOCYTE [1]: 1%
NEUTROPHIL [1]: 9%
NUCLEATED RED BLOOD CELLS [1]: 0.33 /100WBC
PLATELET COUNT [1]: 1070.67 x10E3/uL
ALANINE AMINOTRANSFERASE [1]: 50.33 u/L
ALBUMIN [1]: 4.07 G/DL
ALKALINE PHOSPHATASE [1]: 394 u/L
ASPARTATE AMINOTRANSFERASE [1]: 95 u/L
BLOOD UREA NITROGEN [1]: 16.33 mg/dL
CARBON DIOXIDE [1]: 32.33 mmol/L
CHLORIDE [1]: 103.33 MEQ/L
CHOLESTEROL [1]: 65 mg/dL
CREATINE PHOSPHOKINASE [1]: 400 u/L
CREATININE [1]: 0.17 mg/dL
GLUCOSE [1]: 135.67 mg/dL
LACTATE DEHYDROGENASE [1]: 117.67 u/L
LIPASE [1]: 10.67 u/L
PHOSPHORUS [1]: 11.3 mg/dL
POTASSIUM [1]: 6.41 MEQ/L
SODIUM [1]: 148.03 MEQ/L
TOTAL BILIRUBIN [1]: 0.2 mg/dL
TOTAL PROTEIN [1]: 6.03 G/DL
URIC ACID [1]: 0.9 mg/dL
ABSOLUTE BASOPHIL [2]: 0 CELLS/uL
ABSOLUTE EOSINOPHIL [2]: 0 CELLS/uL
ABSOLUTE LYMPHOCYTE [2]: 11145.5 CELLS/uL
ABSOLUTE MONOCYTE [2]: 120.5 CELLS/uL
ABSOLUTE SEGMENTED NEUTROPHIL [2]: 784 CELLS/uL
BASOPHIL [2]: 0%
EOSINOPHIL [2]: 0%
ERYTHROCYTE COUNT [2]: 6.08 x10E6/uL
HEMATOCRIT [2]: 38.1%
HEMOGLOBIN [2]: 14.85 G/DL
LEUKOCYTE COUNT [2]: 12.05 x10E3/uL
LYMPHOCYTE [2]: 92.5%
MEAN CORPUSCULAR HEMOGLOBIN [2]: 24.45 pg
MEAN CORPUSCULAR HEMOGLOBIN CONCENTRATION [2]: 39 G/DL
MEAN CORPUSCULAR VOLUME [2]: 62.65 fL
MONOCYTE [2]: 1%
NEUTROPHIL [2]: 6.5%
NUCLEATED RED BLOOD CELLS [2]: 0.5 /100WBC
PLATELET COUNT [2]: 1361.5 x10E3/uL
ALANINE AMINOTRANSFERASE [2]: 49.5 u/L
ALBUMIN [2]: 4.15 G/DL
ALKALINE PHOSPHATASE [2]: 322 u/L
ASPARTATE AMINOTRANSFERASE [2]: 87.5 u/L
BLOOD UREA NITROGEN [2]: 11.5 mg/dL
CARBON DIOXIDE [2]: 33 mmol/L
CHLORIDE [2]: 102.5 MEQ/L
CHOLESTEROL [2]: 91.5 mg/dL
CREATINE PHOSPHOKINASE [2]: 450 u/L
CREATININE [2]: 0.17 mg/dL
GLUCOSE [2]: 131 mg/dL
LACTATE DEHYDROGENASE [2]: 260 u/L
LIPASE [2]: 9.5 u/L
PHOSPHORUS [2]: 9.5 mg/dL
POTASSIUM [2]: 5.71 MEQ/L
SODIUM [2]: 148.15 MEQ/L
TOTAL BILIRUBIN [2]: 0.1 mg/dL
TOTAL PROTEIN [2]: 6.35 G/DL
URIC ACID [2]: 0.5 mg/dL
ABSOLUTE BASOPHIL [3]: 0 CELLS/uL
ABSOLUTE EOSINOPHIL [3]: 0 CELLS/uL
ABSOLUTE LYMPHOCYTE [3]: 9273 CELLS/uL
ABSOLUTE MONOCYTE [3]: 138.67 CELLS/uL
ABSOLUTE SEGMENTED NEUTROPHIL [3]: 1121.67 CELLS/uL
BASOPHIL [3]: 0%
EOSINOPHIL [3]: 0%
ERYTHROCYTE COUNT [3]: 5.95 x10E6/uL
HEMATOCRIT [3]: 36.77%
HEMOGLOBIN [3]: 13.97 G/DL
LEUKOCYTE COUNT [3]: 10.53 x10E3/uL
LYMPHOCYTE [3]: 87.67%
MEAN CORPUSCULAR HEMOGLOBIN [3]: 23.57 pg
MEAN CORPUSCULAR HEMOGLOBIN CONCENTRATION [3]: 37.97 G/DL
MEAN CORPUSCULAR VOLUME [3]: 62 fL
MONOCYTE [3]: 1.33%
NEUTROPHIL [3]: 11%
NUCLEATED RED BLOOD CELLS [3]: 0 /100WBC
PLATELET COUNT [3]: 1168 x10E3/uL
ALANINE AMINOTRANSFERASE [3]: 46.33 u/L
ALBUMIN [3]: 4.03 G/DL
ALKALINE PHOSPHATASE [3]: 272 u/L
ASPARTATE AMINOTRANSFERASE [3]: 71 u/L
BLOOD UREA NITROGEN [3]: 14.33 mg/dL
CARBON DIOXIDE [3]: 30.67 mmol/L
CHLORIDE [3]: 100.33 MEQ/L
CHOLESTEROL [3]: 74 mg/dL
CREATINE PHOSPHOKINASE [3]: 156.67 u/L
CREATININE [3]: 0.17 mg/dL
GLUCOSE [3]: 120.67 mg/dL
LACTATE DEHYDROGENASE [3]: 107 u/L
LIPASE [3]: 10.33 u/L
PHOSPHORUS [3]: 12.33 mg/dL
POTASSIUM [3]: 6.12 MEQ/L
SODIUM [3]: 147.17 MEQ/L
TOTAL BILIRUBIN [3]: 0.13 mg/dL
TOTAL PROTEIN [3]: 6.2 G/DL
URIC ACID [3]: 1.1 mg/dL
